Laboratory results as given in article PMC3306180 (Journal of Medicinal Chemistry, 2012).
Read-outs that look alike come from different tables or passages of the source.

What was measured:
T. gondii = T. gondii cell proliferation; format: cell-based, Toxoplasma gondii
[1] = system: CRL-8155 (lymphocytic) cells; assay: Human cell growth inhibition assay, CRL-8155; conditions: concentrations up to 10 μM
HL-60 (neutrophil) cells = assay: Human cell growth inhibition assay, HL-60; conditions: concentrations up to 10 μM
human kinases = format: biochemical
[2] = generally observed, human kinase panel of Table 4

SMILES | block of T. gondii cell invasion/proliferation (T. gondii) | inhibition of cell growth, CRL-8155 [1] | inhibition of cell growth, HL-60 (HL-60 (neutrophil) cells) | differences between IC50 values for TgCDPK1 over human kinases (human kinases; [2]) [fold] | differences between IC50 values for TgCDPK1 over human kinases (human kinases) [fold]
CC(C)(C)n1ncc2c(N)ncnc21.Cl [Compound 1b] | do not block T. gondii cell invasion/proliferation | – | – | – | –
Cl.Nc1ncnc2c1cnn2CC1CCNCC1 [Compound 1n] | do not block T. gondii cell invasion/proliferation | – | – | – | –
COc1ccc2cc(-c3nn(C(C)C)c4ncnc(N)c34)ccc2c1.Cl [Compound 14a] | – | no inhibition of cell growth | no inhibition of cell growth | – | –
COc1ccc2cc(-c3nn(CC4CCNCC4)c4ncnc(N)c34)ccc2c1.Cl [Compound 14n] | – | no inhibition of cell growth | no inhibition of cell growth | > 1000 | –
CCOc1ccc2cc(-c3nn(C4CCN(C)CC4)c4ncnc(N)c34)ccc2c1.Cl [Compound 15h] | – | no inhibition of cell growth | no inhibition of cell growth | > 1000 | –
CCOc1ccc2cc(-c3nn(CC4CCNCC4)c4ncnc(N)c34)ccc2c1.Cl [Compound 15n] | – | no inhibition of cell growth | no inhibition of cell growth | – | > 1000
CCOc1ccc2cc(-c3nn(CC4CCN(C)CC4)c4ncnc(N)c34)ccc2c1.Cl [Compound 15o] | – | – | – | > 1000 | –
CCOc1ccc2cc(-c3nn(CC4CCNCC4)c4ncnc(N)c34)ccc2n1.Cl [Compound 16n] | – | no inhibition of cell growth | no inhibition of cell growth | > 1000 | –
